Values joined by “and” are separate entries in the source; they are usually repeats but may differ in a detail not shown here. Equal entries are not always repeated. Where two headings read alike, the source gives them in different places.
Assays:
[1] = tested on: HIV-1 strains (SKI, RF, DV, IIIB, ADP/141); experiment: microbe, parasite or virus in culture; assay type: cell-based; settings: for IC90: read-out: IC90 (cpe assay)
[2] = tested on: HIV-1 clinical isolates; experiment: microbe, parasite or virus in culture; assay type: cell-based; settings: PBLs, read-out: IC50 viral production
[3] = set-up: species or system cynomolgus monkeys; settings: cynomolgus monkey, in vivo
Method: Dosing. Twelve experimentally naive cynomolgus monkeys were assigned to four groups of three animals each. Prior to dosing, each animal was lightly sedated with a combination of ketamine (1 0 mg/kg) and diazepam (0.5 mg/kg), and a catheter was introduced into the femoral artery for recording central arterial pressure. Monkeys were given a single intravenous infusion of 5, 20, or 50 mg AR177/kg or saline over ten minutes through a cephalic vein catheter using a Harvard infusion pump. Arterial blood samples were drawn at −10, +10, +20, +40, +60 and +120 minutes relative to the initiation of infusion into EDTA-containing tubes for hematology, complement factors, coagulation assay, serum chemistry, and plasma AR177 determination. At 24 hours post-infusion, blood was drawn via the femoral vein into EDTA-containing tubes for these same parameters. The concentration of AR177 in dosing solutions was confirmed post experiment by absorbance at 280 nm on a spectrophotometer. For the determination of AR177 by HPLC, the plasma fraction was obtained by low speed centrifugation of blood, and stored at −20° C. until used. Electrocardiograms (ECGs), central pressure, and heart rate were recorded continuously for 120 minutes following the initiation of doing. Table E-1 summarizes the study design. The animals were observed twice daily pharmacotoxic signs and general health beginning two days before dosing and for seven days following dosing. The monkeys were not necropsied at the end of the study.
Hematology and coagulation parameters. The following are determined: red blood cell count and morphology, total and differential white blood cells, hemoglobin, hematocrit, prothrombin time, fibrinogen, mean cell hemoglobin, mean corpuscular volume, mean corpuscular hemoglobin concentration, platelet count, and activated partial thromboplastin time. Hematology parameters were determined at Sierra Nevada Laboratories (Reno, Nev.).

[4] = tested on: HIV-1 infected PBMCs

5′-gtggtgggtgggtgggt-3′ [T30177] (GTGGTGGGTGGGTGGGT; phosphorothioate termini, further chemistry not given here)
increase in IC50 when MOI of HIV-1RF changed from 0.01 to 1.28 ([1]; CEM-SS): 14 fold | IC50 ([1]; HIV-1 DV, SUP T1, read-out: IC50 virus production): 60 ± 4 nM | IC50 ([1]; HIV-1 IIIB, AA5, read-out: IC50 virus production): < 320 nM | IC50 ([1]; HIV-1 IIIB, CEM-SS or MT4, read-out: Antiviral Assay IC50 IIIB): 2830 nM | IC50 ([1]; HIV-1 IIIB, CEM-SS, read-out: IC50 virus production): 2800 nM and 2830 nM | IC50 ([1]; HIV-1 IIIB, MT2, read-out: IC50 virus production): 1940 ± 120 nM | IC50 ([1]; HIV-1 IIIB, MT4, read-out: IC50 virus production): 150 ± 20 nM | TI (therapeutic index) ([1]; HIV-1RF in MT2 cells): 226 | IC50 ([1]; HIV-1 RF, CEM-SS or MT4, read-out: Antiviral Assay IC50 RF): 75 nM | IC50 ([1]; HIV-1 RF, CEM-SS, MOI 0.01, read-out: IC50 virus production): 75 nM | IC50 ([1]; HIV-1 RF, MT4, read-out: IC50 virus production): 37 ± 30 nM | TI (therapeutic index) ([1]; HIV-1SKI in CEM-SS cells): 3680 | IC50 ([1]; HIV-1 SKI, CEM-SS or MT4, read-out: Antiviral Assay IC50 SKI): 25 nM | IC50 ([1]; HIV-1 SKI, CEM-SS, MOI 0.01, read-out: IC50 virus production): 25 ± 6 nM | IC50 ([1]; HIV-1 SKI, MT2, read-out: IC50 virus production): 60 ± 1 nM | IC50 ([1]; IIIB (MT4), MOI 0.01, read-out: IC50 (cpe assay)): 2700 nM | IC90 ([1]; IIIB (MT4), MOI 0.01): 9200 nM | IC50 ([1]; IIIB (MT4), MOI 0.02, read-out: IC50 (cpe assay)): 3100 nM | IC90 ([1]; IIIB (MT4), MOI 0.02): 6600 nM | IC50 ([1]; IIIB (MT4), MOI 0.3, read-out: IC50 (cpe assay)): 3380 nM | IC90 ([1]; IIIB (MT4), MOI 0.3): 7000 nM | IC50 ([1]; IIIB (MT4), MOI 1, read-out: IC50 (cpe assay)): 6800 nM | IC90 ([1]; IIIB (MT4), MOI 1): 26000 nM | IC50 ([1]; RF (CEM-SS), MOI 0.01, read-out: IC50 (cpe assay)): 200 nM | IC90 ([1]; RF (CEM-SS), MOI 0.01): 500 nM | IC50 ([1]; RF (CEM-SS), MOI 0.02, read-out: IC50 (cpe assay)): 410 nM | IC90 ([1]; RF (CEM-SS), MOI 0.02): 1500 nM | IC90 ([1]; RF (CEM-SS), MOI 0.04): 1560 nM | IC50 ([1]; RF (CEM-SS), MOI 0.08, read-out: IC50 (cpe assay)): 700 nM | IC90 ([1]; RF (CEM-SS), MOI 0.08): 1560 nM | IC50 ([1]; RF (CEM-SS), MOI 0.16, read-out: IC50 (cpe assay)): 870 nM | IC90 ([1]; RF (CEM-SS), MOI 0.16): 1600 nM | IC50 ([1]; RF (CEM-SS), MOI 0.32, read-out: IC50 (cpe assay)): 1250 nM | IC90 ([1]; RF (CEM-SS), MOI 0.32): 4700 nM | IC50 ([1]; RF (CEM-SS), MOI 0.64, read-out: IC50 (cpe assay)): 2640 nM | IC90 ([1]; RF (CEM-SS), MOI 0.64): 4750 nM | IC50 ([1]; RF (CEM-SS), MOI 1.28, read-out: IC50 (cpe assay)): 2810 nM | IC90 ([1]; RF (CEM-SS), MOI 1.28): 4770 nM | IC50 ([1]; anti-HIV-1 virus production, read-out: Cell Culture IC50): 75 nM | IC50 ([2]; clinical isolate 942716): 860 ± 6 nM | IC50 ([2]; clinical isolate 942751): 380 ± 3 nM | IC50 ([2]; clinical isolate BAKI (SI)): 230 ± 5 nM | IC50 ([2]; clinical isolate BLCH (NSI)): 3080 ± 6 nM | IC50 ([2]; clinical isolate JOGA (NSI)): 330 ± 4 nM | IC50 ([2]; clinical isolate N. Amer. #1): 250 ± 3 nM | IC50 ([2]; clinical isolate N. Amer. #2): 2920 ± 5 nM | IC50 ([2]; clinical isolate ROJO (SI)): 3900 ± 20 nM | IC50 ([2]; clinical isolate S. E. Asia): 580 ± 3 nM | IC50 ([2]; clinical isolate VIHU (NSI)): 1300 ± 20 nM | IC50 ([2]; clinical isolate WEJO (SI)): 300 ± 10 nM | IC50 ([2]; clinical isolate WOME (SI)): 710 ± 2 nM | no effect plasma AR177 concentration versus aPTT [3]: 60-100 ug AR177/mL | plasma AR177 concentration at doubling of aPTT [3]: 100-250 ug AR177/mL | plasma AR177 concentration at tripling of aPTT [3]: 250-300 fig AR177/mL | % CD4 ([4]; IIIB, drug 0.1 μM, day 7): 1% | % CD8 ([4]; IIIB, drug 0.1 μM, day 7): 98% | CD4/CD8 Ratio ([4]; IIIB, drug 0.1 μM, day 7): 0.01 | % CD4 ([4]; IIIB, drug 1.0 μM): 18% | % CD8 ([4]; IIIB, drug 1.0 μM): 85% | CD4/CD8 Ratio ([4]; IIIB, drug 1.0 μM): 0.21 | % CD4 ([4]; IIIB, drug 5.0 μM): 27% | % CD8 ([4]; IIIB, drug 5.0 μM): 83% | CD4/CD8 Ratio ([4]; IIIB, drug 5.0 μM): 0.33 | % CD4 ([4]; IIIB, drug 10.0 μM): 27% | % CD8 ([4]; IIIB, drug 10.0 μM): 83% | CD4/CD8 Ratio ([4]; IIIB, drug 10.0 μM): 0.33 | % CD4 ([4]; MN, drug 0.1 μM): 5% | % CD8 ([4]; MN, drug 0.1 μM): 95% | CD4/CD8 Ratio ([4]; MN, drug 0.1 μM): 0.05 | % CD4 ([4]; MN, drug 1.0 μM): 18% | % CD8 ([4]; MN, drug 1.0 μM): 86% | CD4/CD8 Ratio ([4]; MN, drug 1.0 μM): 0.21 | % CD4 ([4]; MN, drug 5.0 μM): 25% | % CD8 ([4]; MN, drug 5.0 μM): 81% | CD4/CD8 Ratio ([4]; MN, drug 5.0 μM): 0.31 | % CD4 ([4]; MN, drug 10.0 μM): 26% | % CD8 ([4]; MN, drug 10.0 μM): 80% | CD4/CD8 Ratio ([4]; MN, drug 10.0 μM): 0.33 | % CD4 ([4]; N. Amer. #1, drug 0.1 μM): 21% | % CD8 ([4]; N. Amer. #1, drug 0.1 μM): 84% | CD4/CD8 Ratio ([4]; N. Amer. #1, drug 0.1 μM): 0.25 | % CD4 ([4]; N. Amer. #1, drug 1.0 μM): 26% | % CD8 ([4]; N. Amer. #1, drug 1.0 μM): 80% | CD4/CD8 Ratio ([4]; N. Amer. #1, drug 1.0 μM): 0.33 | % CD4 ([4]; N. Amer. #1, drug 5.0 μM): 27% | % CD8 ([4]; N. Amer. #1, drug 5.0 μM): 81% | CD4/CD8 Ratio ([4]; N. Amer. #1, drug 5.0 μM): 0.33 | % CD4 ([4]; N. Amer. #1, drug 10.0 μM): 29% | % CD8 ([4]; N. Amer. #1, drug 10.0 μM): 81% | CD4/CD8 Ratio ([4]; N. Amer. #1, drug 10.0 μM): 0.36 | % CD4 ([4]; N. Amer. #2, drug 0.1 μM): 4% | % CD8 ([4]; N. Amer. #2, drug 0.1 μM): 98% | CD4/CD8 Ratio ([4]; N. Amer. #2, drug 0.1 μM): 0.04 | % CD4 ([4]; N. Amer. #2, drug 1.0 μM): 5% | % CD8 ([4]; N. Amer. #2, drug 1.0 μM): 95% | CD4/CD8 Ratio ([4]; N. Amer. #2, drug 1.0 μM): 0.05 | % CD4 ([4]; N. Amer. #2, drug 5.0 μM): 28% | % CD8 ([4]; N. Amer. #2, drug 5.0 μM): 82% | CD4/CD8 Ratio ([4]; N. Amer. #2, drug 5.0 μM): 0.34 | % CD4 ([4]; N. Amer. #2, drug 10.0 μM): 27% | % CD8 ([4]; N. Amer. #2, drug 10.0 μM): 84% | CD4/CD8 Ratio ([4]; N. Amer. #2, drug 10.0 μM): 0.32 | % CD4 ([4]; RF, drug 0.1 μM): 10% | % CD8 ([4]; RF, drug 0.1 μM): 92% | CD4/CD8 Ratio ([4]; RF, drug 0.1 μM): 0.11 | % CD4 ([4]; RF, drug 1.0 μM): 26% | % CD8 ([4]; RF, drug 1.0 μM): 82% | CD4/CD8 Ratio ([4]; RF, drug 1.0 μM): 0.32 | % CD4 ([4]; RF, drug 5.0 μM): 31% | % CD8 ([4]; RF, drug 5.0 μM): 83% | CD4/CD8 Ratio ([4]; RF, drug 5.0 μM): 0.37 | % CD4 ([4]; RF, drug 10.0 μM): 29% | % CD8 ([4]; RF, drug 10.0 μM): 85% | CD4/CD8 Ratio ([4]; RF, drug 10.0 μM): 0.34 | % CD4 ([4]; SE Asia isolate, drug 0.1 μM): 2% | % CD8 ([4]; SE Asia isolate, drug 0.1 μM): 99% | CD4/CD8 Ratio ([4]; SE Asia isolate, drug 0.1 μM): 0.02 | % CD4 ([4]; SE Asia isolate, drug 1.0 μM): 12% | % CD8 ([4]; SE Asia isolate, drug 1.0 μM): 90% | CD4/CD8 Ratio ([4]; SE Asia isolate, drug 1.0 μM): 0.13 | % CD4 ([4]; SE Asia isolate, drug 5.0 μM): 29% | % CD8 ([4]; SE Asia isolate, drug 5.0 μM): 82% | CD4/CD8 Ratio ([4]; SE Asia isolate, drug 5.0 μM): 0.35 | % CD4 ([4]; SE Asia isolate, drug 10.0 μM): 29% | % CD8 ([4]; SE Asia isolate, drug 10.0 μM): 82% | CD4/CD8 Ratio ([4]; SE Asia isolate, drug 10.0 μM): 0.35

Reference: US6355785B1, “Guanosine-rich oligonucleotide integrase inhibitors” (Aronex Pharmaceuticals, Inc., priority 1993, dated 2002)
